Measured values taken from patent US20220281841A1, “ETHYNYLHETEROCYCLES AS RHO-ASSOCIATED COILED-COIL KINASE (ROCK) INHIBITORS” (Angion Biomedica Corp., priority 2019, published 2022).

How the values were obtained:
[1] = target: T1, ROCK1 (Homo sapiens, UniProt Q13464); experiment: ROCK1 kinase binding affinity, DiscoverX KINOMEscan KdELECT; conditions: equilibrium dissociation constant, 11-point 3-fold dilution series
T1 construct: purchased DiscoverX (KINOMEscan KdELECT service); host or cells: E. coli BL21-derived (T7 phage) or HEK-293
T1 sequence (Q13464 whole entry): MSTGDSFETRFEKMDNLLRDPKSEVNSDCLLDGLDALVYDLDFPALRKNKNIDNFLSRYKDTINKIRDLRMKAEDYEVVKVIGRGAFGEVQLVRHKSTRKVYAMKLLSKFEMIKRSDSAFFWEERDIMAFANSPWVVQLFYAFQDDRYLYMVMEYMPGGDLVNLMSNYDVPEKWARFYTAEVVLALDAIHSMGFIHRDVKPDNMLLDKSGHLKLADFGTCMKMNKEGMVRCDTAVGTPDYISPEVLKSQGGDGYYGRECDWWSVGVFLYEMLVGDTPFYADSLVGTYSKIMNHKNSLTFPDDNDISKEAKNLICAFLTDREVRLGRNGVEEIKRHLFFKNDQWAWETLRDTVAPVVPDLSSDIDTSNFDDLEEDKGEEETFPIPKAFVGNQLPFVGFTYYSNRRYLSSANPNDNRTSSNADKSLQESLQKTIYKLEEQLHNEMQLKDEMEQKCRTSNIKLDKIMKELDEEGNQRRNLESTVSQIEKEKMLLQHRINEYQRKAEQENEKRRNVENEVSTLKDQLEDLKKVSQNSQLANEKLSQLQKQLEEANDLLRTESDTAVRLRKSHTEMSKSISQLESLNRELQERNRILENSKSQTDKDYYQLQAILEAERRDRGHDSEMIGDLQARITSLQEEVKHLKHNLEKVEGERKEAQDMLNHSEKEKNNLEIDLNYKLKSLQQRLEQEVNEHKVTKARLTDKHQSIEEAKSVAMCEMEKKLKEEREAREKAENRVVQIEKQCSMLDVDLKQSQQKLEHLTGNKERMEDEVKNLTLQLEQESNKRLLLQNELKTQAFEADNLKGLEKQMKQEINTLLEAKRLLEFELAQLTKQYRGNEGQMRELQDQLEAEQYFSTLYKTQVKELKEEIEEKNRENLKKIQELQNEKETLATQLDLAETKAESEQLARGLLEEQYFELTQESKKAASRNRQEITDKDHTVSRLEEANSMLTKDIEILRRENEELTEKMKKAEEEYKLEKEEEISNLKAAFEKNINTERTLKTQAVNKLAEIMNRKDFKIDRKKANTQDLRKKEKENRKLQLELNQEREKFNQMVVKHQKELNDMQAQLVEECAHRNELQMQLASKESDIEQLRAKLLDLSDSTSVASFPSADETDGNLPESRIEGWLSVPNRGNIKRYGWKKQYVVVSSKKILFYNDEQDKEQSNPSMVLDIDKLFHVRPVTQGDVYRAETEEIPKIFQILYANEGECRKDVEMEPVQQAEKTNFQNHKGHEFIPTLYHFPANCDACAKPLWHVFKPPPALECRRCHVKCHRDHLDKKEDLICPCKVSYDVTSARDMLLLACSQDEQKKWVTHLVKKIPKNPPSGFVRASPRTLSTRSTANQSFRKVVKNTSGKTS
Description: (§1) 1. ROCK1 and ROCK2 kinase assays: The ROCK1 and ROCK2 kinase binding affinities of compounds in this invention were determined by DiscoverX's KINOMEscan™ KdELECT technology (https://www.discoverx.com/kinomescan-elect-kinase-screening-and-profiling-services): Kinase-tagged T7 phage strains were prepared in an E. coli host derived from the BL21 strain. E. coli were grown to log-phase and infected with T7 phage and incubated with shaking at 32° C. until lysis. The lysates were centrifuged and filtered to remove cell debris. The remaining kinases were produced in HEK-293 cells and subsequently tagged with DNA for qPCR detection. Streptavidin-coated magnetic beads were treated with biotinylated small molecule ligands for 30 minutes at room temperature to generate affinity resins for kinase assays. The liganded beads were blocked with excess biotin and washed with blocking buffer (SeaBlock (Pierce), 1% BSA, 0.05% Tween 20, 1 mM DTT) to remove unbound ligand and to reduce nonspecific binding. […] Test compounds were prepared as 111X stocks in 100% DMSO. Kds were determined using an 11-point 3-fold compound dilution series with three DMSO control points. […] The compounds were then diluted directly into the assays such that the final concentration of DMSO was 0.9%. All reactions performed in polypropylene 384-well plate. Each was a final volume of 0.02 ml. […] The kinase concentration in the eluates was measured by qPCR.

[2] = target: T2, ROCK2 (Homo sapiens, UniProt O75116); experiment: ROCK2 kinase binding affinity, DiscoverX KINOMEscan KdELECT; conditions: for ROCK 2 Selectivity: ROCK2 over ROCK1, from Kd values, N/C = not calculated; for Kd: equilibrium dissociation constant, 11-point 3-fold dilution series, read-out: Kd (μM) ROCK2
T2 construct: purchased DiscoverX (KINOMEscan KdELECT service); host or cells: E. coli BL21-derived (T7 phage) or HEK-293
T2 sequence (O75116 whole entry): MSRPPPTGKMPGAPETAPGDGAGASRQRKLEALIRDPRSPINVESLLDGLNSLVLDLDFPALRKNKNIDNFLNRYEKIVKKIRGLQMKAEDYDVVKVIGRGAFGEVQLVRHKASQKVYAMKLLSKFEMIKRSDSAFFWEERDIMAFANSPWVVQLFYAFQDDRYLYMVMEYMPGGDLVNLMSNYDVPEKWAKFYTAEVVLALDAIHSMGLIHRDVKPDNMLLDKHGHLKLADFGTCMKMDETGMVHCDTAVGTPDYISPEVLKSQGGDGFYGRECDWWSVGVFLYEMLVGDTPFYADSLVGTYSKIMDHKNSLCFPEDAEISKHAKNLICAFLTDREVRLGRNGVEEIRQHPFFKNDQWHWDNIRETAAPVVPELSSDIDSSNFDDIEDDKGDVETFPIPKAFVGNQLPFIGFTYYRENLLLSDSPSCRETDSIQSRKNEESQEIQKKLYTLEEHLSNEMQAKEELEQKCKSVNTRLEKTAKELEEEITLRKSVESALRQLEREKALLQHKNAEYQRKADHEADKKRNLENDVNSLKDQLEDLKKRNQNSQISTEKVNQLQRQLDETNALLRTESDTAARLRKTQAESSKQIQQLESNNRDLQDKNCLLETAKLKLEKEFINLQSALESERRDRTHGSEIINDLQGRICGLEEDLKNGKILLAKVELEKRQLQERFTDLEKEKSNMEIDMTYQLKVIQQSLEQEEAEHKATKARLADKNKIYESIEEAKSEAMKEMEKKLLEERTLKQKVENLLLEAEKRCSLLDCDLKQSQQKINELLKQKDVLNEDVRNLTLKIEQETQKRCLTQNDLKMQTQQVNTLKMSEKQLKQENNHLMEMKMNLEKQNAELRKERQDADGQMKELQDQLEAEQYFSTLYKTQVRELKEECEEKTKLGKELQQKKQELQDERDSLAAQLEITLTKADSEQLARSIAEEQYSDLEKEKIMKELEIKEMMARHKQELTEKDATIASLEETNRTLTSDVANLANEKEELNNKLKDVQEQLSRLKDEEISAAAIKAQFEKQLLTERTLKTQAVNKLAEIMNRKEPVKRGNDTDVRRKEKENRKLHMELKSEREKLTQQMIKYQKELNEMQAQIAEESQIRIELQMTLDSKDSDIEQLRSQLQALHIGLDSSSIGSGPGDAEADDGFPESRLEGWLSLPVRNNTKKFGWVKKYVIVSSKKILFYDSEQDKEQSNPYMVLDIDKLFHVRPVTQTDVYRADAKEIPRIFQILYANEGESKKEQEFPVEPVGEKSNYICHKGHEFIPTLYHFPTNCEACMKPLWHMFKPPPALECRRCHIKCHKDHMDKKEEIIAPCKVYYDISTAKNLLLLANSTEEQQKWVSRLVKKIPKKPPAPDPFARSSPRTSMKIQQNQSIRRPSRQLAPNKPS
Description: as §1

[3] = test system: fibroblasts; conditions: fibroblasts treated with KD025; cited from earlier work
[4] = test system: murine autoimmune disease; conditions: cited from earlier work
[5] = 12-16 weeks of dosing in healthy volunteers and patients; cited from earlier work

For Fc1ccc(C2CCN(c3nccc(-c4nccc(C#Cc5ccc6[nH]ncc6c5)n4)n3)CC2)cc1 [Ex. 56, 5-((2′-(4-(4-Fluorophenyl)piperidin-1-yl)-[2,4′-bipyrimidin]-4-yl)ethynyl)-1H-indazole], the Kd [1] was 26 µM, the “ROCK 2 Selectivity” value [2] was 35.6 and the Kd [2] was 0.73 µM.
For Clc1ccc(C2CN(c3nccc(-c4nccc(C#Cc5ccc6[nH]ncc6c5)n4)n3)C2)cc1 [Ex. 57, 5-((2′-(3-(4-Chlorophenyl)azetidin-1-yl)-[2,4′-bipyrimidin]-4-yl)ethynyl)-1H-indazole], the Kd [1] was 6.7 µM, the “ROCK 2 Selectivity” value [2] was 30.5 and the Kd [2] was 0.22 µM.
For C(#Cc1ccnc(-c2ccnc(N3CCN(c4ncc[nH]4)CC3)n2)n1)c1ccc2[nH]ncc2c1 [Ex. 58, 5-((2′-(4-(1H-Imidazol-2-yl)piperazin-1-yl)-[2,4′-bipyrimidin]-4-yl)ethynyl)-1H-indazole], the Kd [1] was 1.6 µM, the “ROCK 2 Selectivity” value [2] was 5 and the Kd [2] was 0.32 µM.
For C(#Cc1ccnc(-c2ccnc(N3CCn4cnnc4C3)n2)n1)c1ccc2[nH]ncc2c1 [Ex. 59, 7-(4-((1H-Indazol-5-yl)ethynyl)-[2,4′-bipyrimidin]-2′-yl)-5,6,7,8-tetrahydro-[1,2,4]triazolo[4,3-a]pyrazine], the Kd [1] was 16 µM, the “ROCK 2 Selectivity” value [2] was 21.3 and the Kd [2] was 0.75 µM.
In the case of FC(F)(F)c1nnc2n1CCN(c1nccc(-c3nccc(C#Cc4ccc5[nH]ncc5c4)n3)n1)C2 [Ex. 60, 7-(4-((1H-Indazol-5-yl)ethynyl)-[2,4′-bipyrimidin]-2′-yl)-3-(trifluoromethyl)-5,6,7,8-tetrahydro-[1,2,4]triazolo[4,3-a]pyrazine], the Kd [1] is reported as 9.9 µM, the “ROCK 2 Selectivity” value [2] is reported as 47.1 and the Kd [2] is reported as 0.21 µM.
With Clc1ccc(N2CCN(c3nccc(-c4nccc(C#Cc5ccc6[nH]ncc6c5)n4)n3)CC2)cc1 [Ex. 61, 5-((2′-(4-(4-Chlorophenyl)piperazin-1-yl)-[2,4′-bipyrimidin]-4-yl)ethynyl)-1H-indazole] the Kd [1] was 22 µM, the “ROCK 2 Selectivity” value [2] was 44.9 and the Kd [2] was 0.49 µM.
For Oc1ccc(N2CCN(c3nccc(-c4nccc(C#Cc5ccc6[nH]ncc6c5)n4)n3)CC2)cc1 [Ex. 62, 4-(4-(4-((1H-Indazol-5-yl)ethynyl)-[2,4′-bipyrimidin]-2′-yl)piperazin-1-yl)phenol], the Kd [1] was 13 µM, the “ROCK 2 Selectivity” value [2] was 118.2 and the Kd [2] was 0.11 µM.
For C(#Cc1ccnc(-c2ccnc(N3CCN(c4nccs4)CC3)n2)n1)c1ccc2[nH]ncc2c1 [Ex. 63, 2-(4-(4-((1H-Indazol-5-yl)ethynyl)-[2,4′-bipyrimidin]-2′-yl)piperazin-1-yl)thiazole], the Kd [1] was over 30 µM, the “ROCK 2 Selectivity” value [2] was over 90.9 and the Kd [2] was 0.33 µM.
For Cc1nnc2n1CCN(c1nccc(-c3nccc(C#Cc4ccc5[nH]ncc5c4)n3)n1)C2 [Ex. 64, 7-(4-((1H-Indazol-5-yl)ethynyl)-[2,4′-bipyrimidin]-2′-yl)-3-methyl-5,6,7,8-tetrahydro-[1,2,4]triazolo[4,3-a]pyrazine], the Kd [1] was 3.4 µM, the “ROCK 2 Selectivity” value [2] was 10.3 and the Kd [2] was 0.33 µM.
In the case of C(#Cc1ccnc(-c2ccnc(N3Cc4ncsc4C3)n2)n1)c1ccc2[nH]ncc2c1 [Ex. 65, 5-(4-((1H-Indazol-5-yl)ethynyl)-[2,4′-bipyrimidin]-2′-yl)-5,6-dihydro-4H-pyrrolo[3,4-d]thiazole], the Kd [1] is reported as 3.4 µM, the “ROCK 2 Selectivity” value [2] is reported as 142 and the Kd [2] is reported as 0.024 µM.
For C(#Cc1ccnc(-c2ccnc(N3CCC(c4ccccc4)C3)n2)n1)c1ccc2[nH]ncc2c1 (stereo not drawn) [Ex. 69, 5-((2′-(3-Phenylpyrrolidin-1-yl)-[2,4′-bipyrimidin]-4-yl)ethynyl)-1H-indazole], the Kd [1] was 9.4 µM, the “ROCK 2 Selectivity” value [2] was 36.2 and the Kd [2] was 0.26 µM.
For COc1cccc(C2CCN(c3nccc(-c4nccc(C#Cc5ccc6[nH]ncc6c5)n4)n3)C2)c1 (stereo not drawn) [Ex. 70, 5-((2′-(3-(3-Methoxyphenyl)pyrrolidin-1-yl)-[2,4′-bipyrimidin]-4-yl)ethynyl)-1H-indazole], the Kd [1] was 6.1 µM, the “ROCK 2 Selectivity” value [2] was 27.7 and the Kd [2] was 0.22 µM.
With Fc1ccc(C2CCN(c3nccc(-c4nccc(C#Cc5ccc6[nH]ncc6c5)n4)n3)C2)cc1 (stereo not drawn) [Ex. 71, 5-((2′-(3-(4-Fluorophenyl)pyrrolidin-1-yl)-[2,4′-bipyrimidin]-4-yl)ethynyl)-1H-indazole] the Kd [1] was 13 µM, the “ROCK 2 Selectivity” value [2] was 36.1 and the Kd [2] was 0.36 µM.
In the case of CC(C)NC(=O)COc1cccc(-c2nc(Nc3ccc4[nH]ncc4c3)c3ccccc3n2)c1 [KD025], the “expression of profibrotic mRNA” value [3] is given as “decreased expression of several profibrotic mRNA including that of CTGF”, the “expression of pro-inflammatory, fibrosis-linked cytokines; autoimmune disease” value [4] is given as “decreased expression of pro-inflammatory, fibrosis-linked cytokines and mitigated murine autoimmune disease” and the “hemodynamic or other side effects” value [5] is given as “no hemodynamic or other side effects”.
